Test: pKa value was determined
Type: physicochemical

| Compound | pKa |
| --- | --- |
| CC(=O)O[C@H]1C[C@H](n2cc(C)c(=O)[nH]c2=O)O[C@@H]1COP(=O)(OC[C@H]1O[C@@H](n2cc(C)c(=O)[nH]c2=O)C[C@@H]1OC(C)=O)Oc1ccccc1Cl | 8.48 |
| CC(=O)O[C@H]1C[C@H](n2cc(C)c(=O)[nH]c2=O)O[C@@H]1COP(=O)(OC[C@H]1O[C@@H](n2cc(C)c(=O)[nH]c2=O)C[C@@H]1OC(C)=O)Oc1ccc([N+](=O)[O-])cc1 | 7.16 |
